The source of these data is patent publication US9394233B2, “ROS-activated compounds as selective anti-cancer therapeutics” (University of Cincinnati, priority 2012, dated 2016).

One may read the GI50 as the concentration at which growth is held to half of that of the control. A higher GI50 goes with less potent growth inhibition.

In one test the test system is MA9.3 AML cells. Briefly: AML cytotoxicity, MTT assay on MA9.3 AML cell line. The conditions noted are these: Homo sapiens, read-out: IC50 against MA9.3 AML cells. In kind it is cell-based, human. An excerpt: (§1) To assess the anti-cancer activity against AML, transformed cells were compared to closely related, non-transformed counterparts. In the case of AML, the generally accepted non-transformed cell of origin is the human CD34+ blood stem/progenitor cell. Assessing potency against normal blood stem cells is important since, without selective cytotoxicity, an agent will yield reduced efficacy and therapeutic potential. […] Therefore, a comparison of current agents and the ROS-activated compounds disclosed herein was carried out. (FIG. 3). Cytotoxicity was measured via MTT assay on CD34+ blood stem/progenitor cells (grey lines) and on the MA9.3 AML cell line (black lines), which was derived from the transformation of human CD34+ cells by introduction of the leukemia oncogene MLL-AF9.
On the technique in general: Formazan colour is commonly taken as a measure of viable cells.

Another test has as its system SN12C. Nature of the test: Sulforhodamine B total protein content assay, SN12C. In kind it is cell-based. Conditions: Homo sapiens; SN12C renal cancer cells. The procedure:
(§2) The sensitivity of renal cancer cells to treatment with compound 25 was investigated. Compound 25 was evaluated for effects on viability using a sulforhodamine B total protein content assay at the NCI Developmental Therapeutics Program. The method uses total protein content and was developed by Monks et al., Feasibility of a high-flux anticancer drug screen using a diverse panel of cultured human tumor cell lines, J. Natl. Cancer Inst. 83:757-66 (1991). Briefly, cells are treated with compound 25 and then fixed to the plate surface. The number of cells is proportional to the relative amount of protein as measured by sulforhodamine B. Seven renal cancer cell lines were examined: 786-0, A498, ACHN, CAKI-1, RXF 393, SN12C, and UO-31. Data at the NCI was then fit to sigmoid and the IC50 and fitting error determined

For another test, the system named is renal cancer cells. Nature of the test: Sulforhodamine B total protein content assay, renal cancer cell lines (NCI). In kind it is cell-based. The conditions noted are these: Homo sapiens; median over seven renal cancer cell lines. The procedure:
as §2

The next test concerns HeLa cells. Briefly: HeLa cell viability, MTT assay. The test is classed as cell-based. The conditions noted are these: Homo sapiens, 50% reduction in percent of viable HeLa cells, read-out: IC50 against HeLa Cells. The procedure:
Table 1 sets forth ROS-Activated compounds of the present invention, together with their IC50 values corresponding to a 50% reduction in the percent of viable HeLa cells in vitro as measured via MTT assay.
All synthesized compounds were purified to greater than 98% purity prior to cell testing. HeLa cell viability assays were performed using an MTT assay.
The general structure of the ROS-activated compounds disclosed herein was probed to determine how positions in the structure alter potency in aqueous media. Compounds were screened against HeLa cells to determine IC50 values. Cell viability was monitored by an MTT dye that forms a purple formazan product in viable cells that are undergoing metabolism. […] Errors reported are between two separate experiments; independent curve-fitting had r greater than 0.95).

The next test relates to CAKI-1. Briefly: Sulforhodamine B total protein content assay, CAKI-1. The test is classed as cell-based. Conditions: Homo sapiens; CAKI-1 renal cancer cells. The procedure: as §2
Another test deals with MOLT-4. Nature of the test: NCI-60 Sulforhodamine B growth inhibition, MOLT-4. In kind it is cell-based. Conditions: Homo sapiens; MOLT-4, ALL model line. The procedure:
(§3) Compounds 25 and 9 were evaluated for effects on the viability of the cell lines in the NCI-60 cell panel. […] Data is reported as growth inhibition GI50, rather than IC50, to reflect the change in cell counts relative to the starting number of cells.
(§4) Growth inhibition pattern induced by 25 and 9 based on the type of cancer was also analyzed. […] The majority of leukemia and renal cancer cell lines were above the median, indicating enhanced sensitivity to ROS-activating compounds. The current results further substantiate renal carcinoma as a potential target.

Another test has as its system RPMI-8226. Briefly: NCI-60 Sulforhodamine B growth inhibition, RPMI-8226. The test is classed as cell-based. The conditions noted are these: Homo sapiens; RPMI-8226, plasmacytoma and myeloma cell line. The procedure: as §3, §4
The test system of test [1] is human CD34+ blood stem/progenitor cells. Nature of the test: Cytotoxicity, MTT assay on CD34+ blood stem/progenitor cells. The test is classed as cell-based. The conditions noted are these: Homo sapiens, normal blood stem cells, read-out: IC50 against CD34+ blood stem/progenitor cells.
Text: as §1

Another test has as its system SR-91. Briefly: NCI-60 Sulforhodamine B growth inhibition, SR-91. The test is classed as cell-based. The conditions noted are these: SR-91, acute lymphoblastic leukemia model. The procedure:
as §3, §4

The test system of another test is NCI-60 cell panel. Nature of the test: NCI-60 cell panel, Sulforhodamine B growth inhibition. The test is classed as cell-based. The procedure:
as §3

In the next test the test system is ACHN. Briefly: Sulforhodamine B total protein content assay, ACHN. In kind it is cell-based. Conditions: Homo sapiens; ACHN renal cancer cells. The procedure:
as §2

As to `Oc1ccc(OCCN(CCOc2ccc(O)cc2)c2ccccc2)cc1` [Compound 25, 4,4′-(2,2′-(phenylazanediyl)bis(ethane-2,1-diyl)bis(oxy))diphenol], the IC50 in the test with MA9.3 AML cells was 3000 ± 200 nM; with SN12C, 21000 ± 1200 nM; in the test on renal cancer cells it was 1800 nM; with HeLa cells, 11000 nM; in the test with CAKI-1 it was 370 ± 40 nM; in test [1] it was 16000 ± 1000 nM. Also, the IC50 in the test on ACHN turned out to be 360 ± 90 nM. The GI50 in the test on MOLT-4 worked out at 1300 nM; in the test with RPMI-8226, 3800 nM; in the test with SR-91 it was 470 nM; with NCI-60 cell panel (median over NCI-60 panel, Sulforhodamine B), 3900 nM. The “range of GI50 values” with NCI-60 cell panel (distribution of GI50 over NCI-60 panel) is 55 fold.
